Laboratory results published in PubChem BioAssay (NCI).
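Following 48 hours of exposure in 96-well plates, responses at five concentrations were used to interpolate endpoints linearly. At the GI50, growth is halved. Definition used: TGI = concentration required for complete inhibition of growth.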

What was measured:
Test in all cases: growth of human tumour cells (NCI), 48 h
CAKI-1 renal = test system: CAKI-1 renal
HCC-2998 colon = test system: HCC-2998 colon
MALME-3M melanoma = test system: MALME-3M melanoma
HCT-116 colon = test system: HCT-116 colon
EKVX NSCLC = test system: EKVX NSCLC
M14 melanoma = test system: M14 melanoma
SF-539 CNS = test system: SF-539 CNS
SK-OV-3 ovarian = test system: SK-OV-3 ovarian
OVCAR-3 ovarian = test system: OVCAR-3 ovarian
LOX IMVI melanoma = test system: LOX IMVI melanoma

Row | Compound | TGI (CAKI-1 renal) [µM] | TGI (HCC-2998 colon) [µM] | TGI (MALME-3M melanoma) [µM] | TGI (HCT-116 colon) [µM] | TGI (EKVX NSCLC) [µM] | TGI (M14 melanoma) [µM] | TGI (SF-539 CNS) [µM] | TGI (SK-OV-3 ovarian) [µM] | TGI (OVCAR-3 ovarian) [µM] | TGI (LOX IMVI melanoma) [µM] | GI50 (CAKI-1 renal) [µM] | GI50 (HCC-2998 colon) [µM] | GI50 (MALME-3M melanoma) [µM] | GI50 (HCT-116 colon) [µM] | GI50 (EKVX NSCLC) [µM] | GI50 (M14 melanoma) [µM] | GI50 (SF-539 CNS) [µM] | GI50 (SK-OV-3 ovarian) [µM] | GI50 (OVCAR-3 ovarian) [µM] | GI50 (LOX IMVI melanoma) [µM]
1 | CC1CC(C)C2=NOS3=C2C1=NO3 (stereo not given) | > 100 | > 100 | > 100 | > 100 | > 100 | > 100 | > 100 | > 100 | > 100 | > 100 |  |  |  |  |  |  |  |  |  | 
2 | O=C(NN1C(=O)CSC12CCCC2)C(O)c1ccccc1 (stereo not given) | > 100 | > 100 | > 100 | > 100 | > 100 | > 100 | > 100 | > 100 | > 100 | > 100 | > 100 | > 100 | > 100 | > 100 | > 100 | > 100 | > 100 | > 100 | > 100 | > 100
3 | CN(C)CCNC(=O)c1cccc2ncc(-c3ccccc3)nc12 | > 68.6 | 23.4 | 26.5 | 22 | 34.3 | 27.2 | 16.8 | 82.6 | 66.8 | 29.5 |  |  |  |  |  |  |  |  |  | 
4 | COc1cc2ncn(-c3cc(OCc4ccccc4C(F)(F)F)c(C(C)=O)s3)c2cc1OC | > 25 | > 25 | > 25 | > 25 | > 25 | > 25 | > 25 | > 25 | > 25 | > 25 | > 25 | > 25 | > 16.8 | > 25 | > 25 | > 25 | > 25 | > 25 | > 25 | > 25
5 | CSc1ccc(C2=NN(C(C)=O)C(c3ccc(F)cc3)C2)cc1 (stereo not given) | 42.2 | 49.8 | 31.3 | 20.1 | 64.7 | 28.8 | 35.4 | 67.7 | 49.5 | 23.2 | 12.9 | 20.4 | 15.8 | 7.11 | 21.6 | 14.4 | 17.5 | 23 | 16.2 | 10.8
6 | Cc1cc(C)nc(NS(=O)(=O)c2ccc(NC(=O)c3ccc(Cl)c4c(Nc5ccc(S(=O)(=O)N=C(N)N)cc5)c5ccccc5nc34)cc2)n1 | > 100 | 78.2 | > 100 | > 100 | > 100 | > 100 | > 100 | > 100 | > 100 | 44.4 |  |  |  |  |  |  |  |  |  | 
7 | CCC[CH2][Sn]([CH2]CCC)([O]C(=O)c1cc(F)cc(F)c1)[O][Sn]([CH2]CCC)([CH2]CCC)[O]C(=O)c1cc(F)cc(F)c1 | 1.95 | 3.32 | 2.18 | 2.63 | 2.59 | 2.81 | 2.8 | 8.38 | 2.86 | 2.35 | 0.663 | 1.71 | 0.889 | 1.35 | 1.31 | 1.48 | 1.34 | 3.04 | 1.52 | 1.05
